Source: paper PMC10590756, “Glutarate regulates T cell metabolism and anti-tumour immunity” (Nature Metabolism, 2023)

How the values were obtained:
CD8^+ T cells [1] = assay: Seahorse analysis of ECAR and OCR (GST, MST, fuel flex test); assay type: cell-based, human
Experimental: To explore further the metabolic consequences of this observed glutarate-induced reduction in PDHc activity, we performed a glycolysis stress test (GST). Acute effects were determined by treating CD8^+ T cells with DEG for 30 min while plated in the Seahorse XF Analyzer. Chronic effects were determined by performing a standard GST in CD8^+ T cells that had been cultured with DEG for 7 days before assay.
To better understand the consequences of providing glutarate as a fuel for mitochondrial oxidation, we measured cellular oxygen consumption while inhibiting, in different combinations, fatty acid, glucose and glutamine oxidation, the three main fuel sources for mitochondrial oxidation (Extended Data Fig. 4i). This was achieved via injection of etomoxir, UK5099 and Bis-2-(5-phenylacetamido-1,3,4-thiadiazol-2-yl)ethyl sulphide (BPTES), respectively, in cells plated in a Seahorse XF Analyzer.
A Seahorse XFe bioanalyzer was used to measure the OCR and ECAR. A total of 1.5 × 10^5 CD8^+ T cells per well were spun onto poly-D-lysine-coated (catalogue no. P7280, Sigma-Aldrich) Seahorse plates and preincubated at 37 °C for a minimum of 30 min in the absence of CO2 in Seahorse XF RPMI medium, pH 7.4 (10376-100, Agilent), supplemented with 10 mM glucose (catalogue no. A2494001, Thermo Fisher Scientific) and 2 mM glutamine (catalogue no. 25030081, Thermo Fisher Scientific). A minimum of five technical replicates per biological replicate were used. For the MST and GST, OCR and ECAR were measured under basal conditions and after the addition of the following: 750 µM DEG (catalogue no. QB-1473, Combi-block), 0.05% DMSO, 1 μM oligomycin (catalogue no. 75351, Sigma-Aldrich), 1.5 μM FCCP (catalogue no. C2920, Sigma-Aldrich), 100 nM rotenone + 1 μM antimycin A (catalogue nos. R8875 and A8674, Sigma-Aldrich), 10 mM glucose and 50 mM 2-DG (catalogue no. B1048-100, BioVision) as indicated. To assess mitochondrial fuel use, OCR was measured subsequent to the addition of the following drugs in different combinations as indicated: 3 µM BPTES (catalogue no. SML0601, Sigma-Aldrich), 2 µM UK-5099 (catalogue no. PZ0160, Sigma-Aldrich) and 4 µM etomoxir (catalogue no. E1905, Sigma-Aldrich). Assay parameters were as follows: 3 min mix, no wait, 3 min measurement, repeated 3–5 times at basal and after each addition. Measurements were taken using a 96-well Extracellular Flux Analyzer (Seahorse Bioscience).

[2] = tested on: protein glutarylation in human CD8^+ T cells; assay: Pan-lysine glutarylation western blot; assay type: cell-based
Experimental: We determined this first by undertaking whole-protein lysate western blot analyses with a pan-lysine glutarylation (K-glutarylation) antibody[36],[38]. […] Glutarylation patterns were also altered when cells were exposed to different oxygen tensions (Fig. 3c and Extended Data Fig. 3a) and when treated with DEG (Fig. 3d and Extended Data Fig. 3b). […] Since, as shown in Extended Data Fig. 1g, DEG is converted within 15 min to glutarate intracellularly, it is likely that the DEG-induced glutarylation observed after 30 min of DEG treatment is a direct result of increases in intracellular glutarate.
Cell pellets were lysed by either urea-Tris buffer (8 M urea, 50 mM Tris-HCl (pH 7.5), 150 mM β-mercaptoethanol), sonicated twice for 45 s intercalated with 1 min incubation on ice and centrifuged at 14,000g, 4 °C for 15 min or by RIPA Lysis and Extraction Buffer (catalogue no. 89900, Thermo Fisher Scientific), according to the manufacturer’s instructions. Nuclear and cytosolic fractions were prepared from cells using the NE-PER kit (catalogue no. 78833, Thermo Fisher Scientific). Histones were extracted with the Histone Extraction Kit (catalogue no. ab113476, Abcam). Proteins were separated by SDS–PAGE and transferred to polyvinylidene fluoride (PVDF) membranes. Total protein stain was obtained using non-stain protein labelling reagent (catalogue no. A44448, Thermo Fisher Scientific). […]

CD8^+ T cells [3] = assay: Western blot of PDHK1, phosphorylated PDHc and PDHc; assay type: cell-based, human; settings: 500 µM DEG
Experimental: Cell pellets were lysed by either urea-Tris buffer (8 M urea, 50 mM Tris-HCl (pH 7.5), 150 mM β-mercaptoethanol), sonicated twice for 45 s intercalated with 1 min incubation on ice and centrifuged at 14,000g, 4 °C for 15 min or by RIPA Lysis and Extraction Buffer (catalogue no. 89900, Thermo Fisher Scientific), according to the manufacturer’s instructions. Nuclear and cytosolic fractions were prepared from cells using the NE-PER kit (catalogue no. 78833, Thermo Fisher Scientific). Histones were extracted with the Histone Extraction Kit (catalogue no. ab113476, Abcam). Proteins were separated by SDS–PAGE and transferred to polyvinylidene fluoride (PVDF) membranes. Total protein stain was obtained using non-stain protein labelling reagent (catalogue no. A44448, Thermo Fisher Scientific). Membranes were then blocked in 5% milk prepared in PBS plus 0.05% Tween-20, incubated with primary antibodies overnight at 4 °C and horseradish peroxidase (HRP)-conjugated secondary antibodies (catalogue nos. HAF008 and HAF007, R&D Systems) for 1 h the next day. After enhanced chemiluminescence (ECL) exposure (catalogue no. GERPN2106, Sigma-Aldrich), membranes were imaged using an iBrightCL1000 (Thermo Fisher Scientific). The following primary antibodies from Cell Signaling Technology were used at a concentration of 1:1,000: anti-PDHK1 (catalogue no. 3820); anti-β-actin (catalogue no. 12262S); anti-PPIB (catalogue no. 43603); anti-OGDH (catalogue no. 26865S); anti-phospho-PDH α1 (catalogue no. 37115); anti-SIRT5 (catalogue no. 8779S); anti-H3 (catalogue no. 4499); anti-H3K4me2 (catalogue no. 9725); anti-H3K4me3 (catalogue no. 9751); anti-H3K9me2 (catalogue no. 4658); anti-H3K9me3 (catalogue no. 13969); anti-H3K27me2 (catalogue no. 9728); anti-H3K27me3 (catalogue no. 9733); anti-H3K36me2 (catalogue no. 2901); anti-H3K36me3 (catalogue no. 4909); anti-H3K79me2 (catalogue no. 5427); anti-H3K79me3 (catalogue no. 4360); anti-H3k9ac (catalogue no. 9649); anti-H3K18ac (catalogue no. 13998); and anti-H3k27ac (catalogue no. 8173). […]

[4] = design: method as in PMID 29989593; settings: approved by the European Union for use as a food additive; cited from earlier work
[5] = fuel flex test, 500 µM DEG, 7 days, other fuel sources limited

Compound: CCOC(=O)CCCC(=O)OCC [DEG, Diethyl glutarate]
- maximal OCR, cells treated 7 days with DEG (CD8^+ T cells [1]; 500 µM DEG, 7 days): reduced maximal OCR
- basal oxygen consumption rates (OCRs) (CD8^+ T cells [1]; 500 µM DEG, acute and chronic, with or without glucose and glutamine): either maintained or increased
- basal extracellular acidification rate (ECAR) (CD8^+ T cells [1]; DEG 30 min (acute) or 7 days (chronic)): increases
- glycolytic rate (GST), acute exposure (CD8^+ T cells [1]; DEG 30 min in the Seahorse XF Analyzer): increased glycolytic rate
- effect of FCCP on OCR (MST), cells treated acutely with DEG (CD8^+ T cells [1]; acute DEG): did not have an effect
- glycolytic rate (GST), chronic exposure (CD8^+ T cells [1]; cultured with DEG for 7 days): increased glycolytic rate
- dependence on fatty acid, glucose and glutamine oxidation (CD8^+ T cells [1]; fuel flex test, 500 µM DEG, 7 days): not more dependent
- capacity to oxidize fatty acids (CD8^+ T cells [1]; [5]): increased capacity
- capacity to oxidize glucose (CD8^+ T cells [1]; [5]): increased capacity
- time of culture with DEG after which shifts in glutarylation could be detected ([2]; 500 µM DEG): 30 min
- glutarylation patterns ([2]; increasing concentrations of DEG, 7 days): altered
- PDHK1 protein levels (CD8^+ T cells [3]): not significantly altered
- PDHc phosphorylation levels (CD8^+ T cells [3]): did not observe any changes
- protein expression of the PDHc (CD8^+ T cells [3]): did not alter
- toxicity [4]: non-toxic
